A melting point compilation (Tetko et al.)

Row | SMILES | melting point [°C]
1 | Cc1ncc(CO)c(N)n1 | 198
2 | CC(=O)NC1C(Oc2c[nH]c3ccc(Br)c(Cl)c23)OC(CO)C(O)C1O (centres undefined) | 246 to 248
3 | O=C(O)C=Cc1c(Cl)cccc1Cl | 192 to 196
4 | O=C(O)C=Cc1ccc(OC(F)(F)F)cc1 | 178 to 179
5 | CC(C)(C)[C@H]1CC[C@H](C(=O)O)CC1 | 170 to 175
6 | COC(=O)c1cc(C)ccc1O | -1
7 | CCCCCCC1CCCC1 | -73
8 | Cc1ccc(NC(=O)N(C)C)cc1Cl | 148
9 | NC(=O)NN=Cc1ccccc1 | 231
10 | Nc1nnc(-c2ccccc2)c(Nc2ccc(I)cc2)n1 | 389
11 | CN(C)CC(O)c1ccc(O)c(O)c1 (centres undefined) | 149
12 | Cn1nc(-c2ccco2)cc1C(=O)O | 130
13 | c1cnc2ncncc2n1 | 140
14 | CC(=O)OCC1OC(C(N)=O)C(OC(C)=O)C(OC(C)=O)C1OC(C)=O (centres undefined) | 127 to 130
15 | C#CCOCc1cc(COCC#C)c(COCC#C)cc1COCC#C | 66
16 | CC1(C)OCC(C2OC3OC(C)(C)OC3C2O)O1 (centres undefined) | 109
17 | c1ccc(O[Si]23OCCN(CCO2)CCO3)cc1 | 218
18 | O=C(O)c1cc2sccc2s1 | 222
19 | CCOC(=O)C(C#N)=C(N)c1cc2ccccc2oc1=O | 247 to 249
20 | COc1cccc(N2C(=O)C=CC2=O)c1 | 62 to 66
21 | Cc1ccc(C(=O)O)o1 | 110
22 | COc1c(Cl)ccc(Cl)c1C(=O)O | 115

Row | SMILES | melting point [°C]
23 | O=Cc1cccc([N+](=O)[O-])c1O | 110
24 | N#Cc1cccc(S(=O)(=O)Cl)c1 | 50
25 | COC(=O)C(C#N)=c1sc(=C(C#N)C(=O)OC)s1 | 235 to 250
26 | CC(=O)n1c(C)c(C)c2ccccc21 | 74
27 | COc1ccc(Cc2c(N)n[nH]c2N)cc1 | 152 to 154
28 | S=C(NN=Cc1c(-c2ccc(Cl)cc2)[nH]c2ccccc12)Nc1ccc(Cl)cc1 | 215 to 217
29 | CC(=O)N(Nc1ccccc1)c1ccc(-c2ccc(/N=N/c3ccccc3)cc2)cc1 | 244
30 | OC1CC(O)C(O)CO1 (centres undefined) | 69 to 72
31 | COc1ccc(NC(N)=S)c(OC)c1 | 199 to 201
32 | CC(C=CC=C(C)C=CC1(O)C(C)(C)CCCC1(C)O)=CC=CC=C(C)C=CC(=O)O (centres undefined) | 213
33 | NNC(=O)c1snnc1-c1ccccc1 | 129 to 130
34 | O=C(CCC(=O)Oc1ccccc1)Oc1ccccc1 | 121
35 | Cc1cc(C(F)(F)F)cc(NN)n1 | 79 to 81
36 | Cc1ccc2cc(CBr)ccc2n1 | 93 to 94
37 | O=C(Nc1nnc(-c2ccc(Cl)cc2)o1)c1ccc(Cl)cc1 | 278 to 279
38 | CNC(=O)ON=C(C)SC | 78
39 | O=Cc1sc(-c2ccccc2)nc1-c1ccccc1 | 121 to 123
40 | Cc1cc(Br)cc(N)c1N | 63 to 64
41 | Brc1ccc(Oc2c(Br)cc(Br)cc2Br)c(Br)c1 | 97 to 98
42 | CC(C)(C)OC(=O)NC(Cc1ccc2ccccc2c1)C(=O)O (centres undefined) | 90
43 | O=C(Cl)c1sc(Br)c2c1OCCO2 | 154 to 155
44 | NCCNCCNCCN | -35

Row | SMILES | melting point [°C]
45 | O=[N+]([O-])c1ccc(-c2nnc3n2NC(c2ccccc2)S3)cc1 (centres undefined) | 220
46 | CCOC=C(C#N)S(=O)(=O)c1ccc(Cl)cc1 | 121 to 124
47 | NCCOc1ccccc1Cl | 40
48 | CC(=O)OCC(=O)C1(O)CCC2(O)C3CCC4=CC(=O)CCC4(C)C3CCC12C (centres undefined) | 236
49 | CN(N)c1ccc(Cl)cc1[N+](=O)[O-] | 91
50 | Brc1ccc(Oc2c(Br)cccc2Br)cc1 | 77 to 77.5
51 | CC(C)(Oc1ccc(Cl)cc1)C(=O)NC(=O)NCN1CCOCC1 | 100
52 | Cc1nc(-c2ccccc2)sc1C(=O)CBr | 117 to 118
53 | CC(=O)N[Si](C)(C)C | 41
54 | C=COCCCC | -92
55 | NC(=S)c1cccnc1 | 185 to 190
56 | O=C=Nc1ccc(OC2CCOCC2)nc1 | 68.5 to 70.5
57 | Cc1cc(C(=O)O)ccc1O | 174 to 175
58 | OCc1csc2ccccc12 | 49 to 50
59 | NC(=S)c1ccc(-c2csnn2)cc1 | 223 to 228
60 | CCOC(=O)c1c(SC)nn(C(=O)c2ccc(OC)cc2)c1N | 160
61 | O=C(NCN1CCOCC1)c1cnccn1 | 118
62 | Cc1nc(-c2ccccc2)cs1 | 54
63 | CSc1nccc(-c2ccc(S(=O)(=O)Cl)s2)n1 | 129 to 131
64 | CC(=O)N1C(=O)[C@@](O)(c2coc3ccccc23)c2ccccc21 | 110
